From ChEMBL document CHEMBL3865816, “Design, synthesis and biological evaluation of novel azaspiro analogs of linezolid as antibacterial and antitubercular agents” (Eur J Med Chem, 2016)
Values after ≈ are worked out from the molar mass of the structure shown.

Key:
Format in all cases: functional
[1] = system: Pseudomonas aeruginosa; assay: Antibacterial activity against Pseudomonas aeruginosa NCIM 2036 at 3 ug/ml measured after 8 hrs by spectrophotometric method; conditions: NCIM 2036, 8 h
[2] = system: Mycobacterium tuberculosis; assay: Antitubercular activity against dormant stage Mycobacterium tuberculosis H37Ra at 30 ug/ml measured after 12 days by XTT assay; conditions: 288 h
[3] = system: Pseudomonas aeruginosa; assay: Antibacterial activity against Pseudomonas aeruginosa NCIM 2036 measured after 8 hrs by spectrophotometric method; conditions: NCIM 2036, 8 h
[4] = system: Escherichia coli; assay: Antibacterial activity against Escherichia coli NCIM 2688 at 30 ug/ml measured after 8 hrs by spectrophotometric method; conditions: NCIM 2688, 8 h
[5] = system: Escherichia coli; assay: Antibacterial activity against Escherichia coli NCIM 2688 at 3 ug/ml measured after 8 hrs by spectrophotometric method; conditions: NCIM 2688, 8 h
[6] = system: Pseudomonas aeruginosa; assay: Antibacterial activity against Pseudomonas aeruginosa NCIM 2036 at 30 ug/ml measured after 8 hrs by spectrophotometric method; conditions: NCIM 2036, 8 h
[7] = system: Bacillus subtilis; assay: Antibacterial activity against Bacillus subtilis NCIM 2010 at 3 ug/ml measured after 12 hrs by spectrophotometric method; conditions: NCIM 2010, 12 h
[8] = system: Mycobacterium tuberculosis; assay: Antitubercular activity against dormant stage Mycobacterium tuberculosis H37Ra at 3 ug/ml measured after 12 days by XTT assay; conditions: 288 h
[9] = system: Staphylococcus aureus; assay: Antibacterial activity against Staphylococcus aureus NCIM 2079 at 30 ug/ml measured after 12 hrs by spectrophotometric method; conditions: NCIM 2079, 12 h
[10] = system: Escherichia coli; assay: Antibacterial activity against Escherichia coli NCIM 2688 at 10 ug/ml measured after 8 hrs by spectrophotometric method; conditions: NCIM 2688, 8 h
[11] = system: Bacillus subtilis; assay: Antibacterial activity against Bacillus subtilis NCIM 2010 measured after 12 hrs by spectrophotometric method; conditions: NCIM 2010, 12 h
[12] = system: Staphylococcus aureus; assay: Antibacterial activity against Staphylococcus aureus NCIM 2079 measured after 12 hrs by spectrophotometric method; conditions: NCIM 2079, 12 h
[13] = system: Bacillus subtilis; assay: Antibacterial activity against Bacillus subtilis NCIM 2010 at 10 ug/ml measured after 12 hrs by spectrophotometric method; conditions: NCIM 2010, 12 h
[14] = system: Mycobacterium tuberculosis; assay: Antitubercular activity against dormant stage Mycobacterium tuberculosis H37Ra at 10 ug/ml measured after 12 days by XTT assay; conditions: 288 h
[15] = system: Pseudomonas aeruginosa; assay: Antibacterial activity against Pseudomonas aeruginosa NCIM 2036 at 10 ug/ml measured after 8 hrs by spectrophotometric method; conditions: NCIM 2036, 8 h
[16] = system: Staphylococcus aureus; assay: Antibacterial activity against Staphylococcus aureus NCIM 2079 at 10 ug/ml measured after 12 hrs by spectrophotometric method; conditions: NCIM 2079, 12 h
[17] = system: Bacillus subtilis; assay: Antibacterial activity against Bacillus subtilis NCIM 2010 at 30 ug/ml measured after 12 hrs by spectrophotometric method; conditions: NCIM 2010, 12 h
[18] = system: Mycobacterium tuberculosis; assay: Antitubercular activity against dormant stage Mycobacterium tuberculosis H37Ra measured after 12 days by XTT assay; conditions: 288 h
[19] = system: Escherichia coli; assay: Antibacterial activity against Escherichia coli NCIM 2688 measured after 8 hrs by spectrophotometric method; conditions: NCIM 2688, 8 h
[20] = system: Staphylococcus aureus; assay: Antibacterial activity against Staphylococcus aureus NCIM 2079 at 3 ug/ml measured after 12 hrs by spectrophotometric method; conditions: NCIM 2079, 12 h

| Compound | inhibition at 3 µg/mL [1] | inhibition at 30 µg/mL [2] | IC50 [3] | MIC [3] | inhibition at 30 µg/mL [4] | inhibition at 3 µg/mL [5] | inhibition at 30 µg/mL [6] | inhibition at 3 µg/mL [7] | inhibition at 3 µg/mL [8] | inhibition at 30 µg/mL [9] | inhibition at 10 µg/mL [10] | IC50 [11] | MIC [11] | IC50 [12] | MIC [12] | inhibition at 10 µg/mL [13] | inhibition at 10 µg/mL [14] | inhibition at 10 µg/mL [15] | inhibition at 10 µg/mL [16] | inhibition at 30 µg/mL [17] | further results |
| --- | --- | --- | --- | --- | --- | --- | --- | --- | --- | --- | --- | --- | --- | --- | --- | --- | --- | --- | --- | --- | --- |
| COCC(=O)NC[C@H]1CN(c2ccc(N3CC4(COC4)C3)c(F)c2)C(=O)O1 | 14.4% | 50.1% | > 100 µg/mL | > 100 µg/mL | 66.6% | 61.5% | 63.7% | 51.2% | -22.9% | 98.8% | 65.4% | > 100 µg/mL | > 100 µg/mL | > 100 µg/mL | > 100 µg/mL | 77.7% | -13.7% | 37.1% | 92.2% | 95.2% | IC50 [18]: > 100 µg/mL; MIC [18]: > 100 µg/mL; IC50 [19]: > 100 µg/mL; MIC [19]: > 100 µg/mL; inhibition at 3 µg/mL [20]: 72.3% |
| O=C1O[C@@H](CNS(=O)(=O)c2cc([N+](=O)[O-])ccc2Cl)CN1c1ccc(N2CC3(COC3)C2)c(F)c1 | -6.17% | 59.6% | > 100 µg/mL | > 100 µg/mL | 49.6% | 2.37% | 68.6% | 47% | 24.4% | 89.5% | 15.8% | > 100 µg/mL | > 100 µg/mL | > 100 µg/mL | > 100 µg/mL | 62.1% | 29.2% | 38.6% | 55% | 88.4% | IC50 [18]: > 100 µg/mL; MIC [18]: > 100 µg/mL; IC50 [19]: > 100 µg/mL; MIC [19]: > 100 µg/mL; inhibition at 3 µg/mL [20]: 42% |
| O=C1O[C@@H](CNS(=O)(=O)c2cccc(C(F)(F)F)c2)CN1c1ccc(N2CC3(COC3)C2)c(F)c1 | 0.66% | 25.1% | > 100 µg/mL | > 100 µg/mL | 99.5% | 90.5% | 70.8% | 11.2% | 5.38% | 19.5% | 97.5% | > 100 µg/mL | > 100 µg/mL | > 100 µg/mL | > 100 µg/mL | 17.5% | -59% | 43% | 17.3% | 25% | IC50 [18]: > 100 µg/mL; MIC [18]: > 100 µg/mL; IC50 [19]: 0.57 µg/mL (≈ 1.11 µM); MIC [19]: 3.03 µg/mL (≈ 5.88 µM); inhibition at 3 µg/mL [20]: -2.71% |
| O=C(NC[C@H]1CN(c2ccc(N3CC4(COC4)C3)c(F)c2)C(=O)O1)c1cccnc1 | 40.9% | 63.1% | > 100 µg/mL | > 100 µg/mL | 94.8% | 84.8% | 56.3% | 60.8% | 3.2% | 96.2% | 90.5% | > 100 µg/mL | > 100 µg/mL | 1.03 µg/mL (≈ 2.5 µM) | 18.3 µg/mL (≈ 44.3 µM) | 77.1% | 5.21% | 49.5% | 85.9% | 99.2% | IC50 [18]: > 100 µg/mL; MIC [18]: > 100 µg/mL; IC50 [19]: 0.67 µg/mL (≈ 1.62 µM); MIC [19]: 8.33 µg/mL (≈ 20.2 µM); inhibition at 3 µg/mL [20]: 78.2% |
| O=C1O[C@@H](CNC(=S)Nc2ccc([N+](=O)[O-])cc2)CN1c1ccc(N2CC3(COC3)C2)c(F)c1 | 9.11% | -13.5% | > 100 µg/mL | > 100 µg/mL | 65.5% | 51.8% | 73.6% | 62.7% | 9.41% | 81% | 61% | > 100 µg/mL | > 100 µg/mL | > 100 µg/mL | > 100 µg/mL | 76.2% | 4.66% | 41.8% | 74.5% | 80.4% | IC50 [18]: > 100 µg/mL; MIC [18]: > 100 µg/mL; IC50 [19]: > 100 µg/mL; MIC [19]: > 100 µg/mL; inhibition at 3 µg/mL [20]: 66.7% |
| O=C(NC[C@H]1CN(c2ccc(N3CC4(COC4)C3)c(F)c2)C(=O)O1)c1ccc(C(F)(F)F)cc1 | 74.9% | -20.7% | 1.19 µg/mL (≈ 2.48 µM) | 18.1 µg/mL (≈ 37.8 µM) | 74.1% | 33.8% | 98.3% | 65.4% | -10.1% | 92.2% | 59.7% | > 100 µg/mL | > 100 µg/mL | 0.67 µg/mL (≈ 1.4 µM) | 22.3 µg/mL (≈ 46.5 µM) | 78.8% | -4.6% | 84.9% | 84.4% | 95.8% | IC50 [18]: > 100 µg/mL; MIC [18]: > 100 µg/mL; IC50 [19]: > 100 µg/mL; MIC [19]: > 100 µg/mL; inhibition at 3 µg/mL [20]: 78.4% |
| O=C1O[C@@H](CNC(=O)C23CC4CC(CC(C4)C2)C3)CN1c1ccc(N2CC3(COC3)C2)c(F)c1 | 49.6% | 22.1% | > 100 µg/mL | > 100 µg/mL | 60.1% | 36.8% | 40.7% | 51.3% | 9.46% | 71.1% | 43.3% | > 100 µg/mL | > 100 µg/mL | > 100 µg/mL | > 100 µg/mL | 62% | 4.41% | 39.2% | 55.5% | 69.8% | IC50 [18]: > 100 µg/mL; MIC [18]: > 100 µg/mL; IC50 [19]: > 100 µg/mL; MIC [19]: > 100 µg/mL; inhibition at 3 µg/mL [20]: 54.9% |
| O=C1O[C@@H](CNS(=O)(=O)c2cc(Cl)cc(Cl)c2)CN1c1ccc(N2CC3(COC3)C2)c(F)c1 | 42.2% | 23.2% | > 100 µg/mL | > 100 µg/mL | 25.4% | 36.8% | 86.6% | 51% | 8.02% | 74.2% | 23.5% | > 100 µg/mL | > 100 µg/mL | > 100 µg/mL | > 100 µg/mL | 56.1% | -5.84% | 67.2% | 50.6% | 66.6% | IC50 [18]: > 100 µg/mL; MIC [18]: > 100 µg/mL; IC50 [19]: > 100 µg/mL; MIC [19]: > 100 µg/mL; inhibition at 3 µg/mL [20]: 55.1% |
| CC1(C)[C@@]2(C)CC[C@]1(C(=O)NC[C@H]1CN(c3ccc(N4CC5(COC5)C4)c(F)c3)C(=O)O1)OC2=O | 50.6% | 15.6% | > 100 µg/mL | > 100 µg/mL | 39.5% | 20% | 56.4% | 40.5% | 9.81% | 70.2% | 28.8% | > 100 µg/mL | > 100 µg/mL | > 100 µg/mL | > 100 µg/mL | 53.8% | -38.5% | 55% | 51.1% | 69.8% | IC50 [18]: > 100 µg/mL; MIC [18]: > 100 µg/mL; IC50 [19]: > 100 µg/mL; MIC [19]: > 100 µg/mL; inhibition at 3 µg/mL [20]: 50.6% |
| O=C1O[C@@H](CNS(=O)(=O)c2ccc(Cl)s2)CN1c1ccc(N2CC3(COC3)C2)c(F)c1 | 86.6% | 74.6% | 1.13 µg/mL (≈ 2.32 µM) | 3.52 µg/mL (≈ 7.21 µM) | 97.8% | 80.3% | 99% | 90% | -14.5% | 96.9% | 87.4% | 0.64 µg/mL (≈ 1.31 µM) | 2.2 µg/mL (≈ 4.51 µM) | 0.46 µg/mL (≈ 0.943 µM) | 1.31 µg/mL (≈ 2.68 µM) | 97.2% | -6.64% | 97.1% | 96.5% | 99.2% | IC50 [18]: > 100 µg/mL; MIC [18]: > 100 µg/mL; IC50 [19]: 0.89 µg/mL (≈ 1.82 µM); MIC [19]: 15.4 µg/mL (≈ 31.6 µM); inhibition at 3 µg/mL [20]: 94.3% |
